# Reference: paper PMC4896453 (PLoS ONE, 2016)
# Experiments:
# rats = assay: Rota-rod test after intrathecal infusion; type: in vivo, rat; details: same range of doses (0.1–1 nmol), data not shown
# Protocol: For all the experiments described below, male Sprague-Dawley rats (Harlan, Varese, Italy), weighing approximately 280-300g at the beginning of the experimental procedure, were used. Animals were housed in CeSAL (Centro Stabulazione Animali da Laboratorio, University of Florence) and used at least one week after their arrival. One rat was housed per cage (size 26x41 cm); animals were fed with standard laboratory diet and tap water ad libitum, and kept at 23±1°C with a 12 h light/dark cycle, light at 7 a.m. […] All animals were monitored daily using a scoring system (based on: Appearance, Food and Water Intake, Clinical Signs, Natural Behaviour and Provoked Behaviour. Maximum score is 20 and animals reaching 10 are euthanized. In the experiments reported here no animals reached this score and none died before the end of the experiment) and at the end of the experiment were euthanized by CO2 overdose. […]
# Rota-rod apparatus (Ugo Basile, Varese, Italy) consisted of a base platform and a rotating rod with a diameter of 6 cm and a non-slippery surface. […] The integrity of motor coordination was assessed on the basis of the number of falls from the rod in 60s measured 15, 30, 45, 60, 90, 120 and 180 min after treatments.
# Mu receptor (CHOhMu) [1] = biological target: T1, Mu receptor (CHOhMu) (Homo sapiens, UniProt P35372); assay: Displacement binding of [3H]-DPN, CHOhMu membranes; details: SEM
# T1 construct: expressed in transfected cells; host or cells: CHO (Chinese Hamster Ovary)
# Protocol: (§1) In the radioligand displacement binding assays, homogenization/wash buffer consisting of 50 mM Tris-HCl pH to 7.4 with KOH, for CHOhMu, CHOhDelta and CHOhKappa or additional 5 mM MgSO4 for CHOhNOP was used. Homogenisation buffer (50 mM Tris and 0.2 mM EGTA pH 7.4 with NaOH) was used in GTPγ[^35S] assays. Membranes were centrifuged at 20374 g for 10 min at 4°C. This process was repeated at least three times. The resulting pellet was resuspended in an appropriate amount of the necessary buffer and the protein concentration was determined by Lowry assay.
# (§2) Samples were incubated for 1 hr at room temperature and reactions were terminated by vacuum filtration, onto PEI-soaked Whatman GF/B filters, using a Brandel harvester.
# [2] = biological target: T2, human Mu receptor (Mu-RLuc/Gβ1-RGFP) (Homo sapiens, UniProt P35372); assay: BRET Mu-RLuc/Gβ1-RGFP interaction, SH-SY5Y membranes; type: biochemical
# T2 construct: expressed in transfected cells; host or cells: SH-SY5Y (retroviral expression; membranes used)
# [3] = biological target: T3, Kappa receptor (CHOhKappa) (Homo sapiens, UniProt P41145); assay: Displacement binding of [3H]-DPN, CHOhKappa membranes; details: SEM
# T3 construct: expressed in transfected cells; host or cells: CHO (Chinese Hamster Ovary)
# Protocol: as §1, §2
# [4] = biological target: human NOP receptor (NOP-RLuc/Gβ1-RGFP) (Homo sapiens, UniProt P41146); assay: biochemical; type: biochemical
# Mu receptor (CHOhMu) [5] = biological target: T1, Mu receptor (CHOhMu); assay: GTPγ[35S] binding, CHOhMu membranes; type: biochemical
# NOP receptor (CHOhNOP) [6] = biological target: T4, NOP receptor (CHOhNOP) (Homo sapiens, UniProt P41146); assay: Displacement binding of [3H]-UFP-101, CHOhNOP membranes
# T4 construct: expressed in transfected cells; host or cells: CHO (Chinese Hamster Ovary)
# Protocol: as §1, §2
# NOP receptor (CHOhNOP) [7] = biological target: T4, NOP receptor (CHOhNOP); assay: GTPγ[35S] binding, CHOhNOP membranes; type: biochemical
# [8] = biological target: T3, Kappa receptor (CHOhKappa); assay: GTPγ[35S] binding, CHOhKappa membranes; type: biochemical
# [9] = biological target: T5, human NOP receptor (NOP-RLuc/β-arrestin 2-RGFP) (Homo sapiens, UniProt P41146); assay: BRET NOP-RLuc/β-arrestin 2-RGFP interaction, HEK-293 cells; type: cell-based
# T5 construct: expressed in transfected cells; host or cells: HEK-293 (retroviral expression; whole cells)
# [10] = biological target: T6, Delta receptor (CHOhDelta) (Homo sapiens, UniProt P41143); assay: Displacement binding of [3H]-DPN, CHOhDelta membranes; details: SEM
# T6 construct: expressed in transfected cells; host or cells: CHO (Chinese Hamster Ovary)
# Protocol: as §1, §2
# human Mu receptor = biological target: T7, human Mu receptor (Homo sapiens, UniProt P35372); assay: Calcium mobilisation, CHO cells with Mu and Gαqi5; type: cell-based
# T7 construct: expressed in transfected cells; host or cells: CHO
# [11] = biological target: T8, human Mu receptor (Mu-RLuc/β-arrestin 2-RGFP) (Homo sapiens, UniProt P35372); assay: BRET Mu-RLuc/β-arrestin 2-RGFP interaction, SH-SY5Y cells; type: cell-based
# T8 construct: expressed in transfected cells; host or cells: SH-SY5Y (retroviral expression; whole cells)
# [12] = biological target: T6, Delta receptor (CHOhDelta); assay: GTPγ[35S] binding, CHOhDelta membranes; type: biochemical
# human NOP receptor = biological target: T9, human NOP receptor (Homo sapiens, UniProt P41146); assay: Calcium mobilisation, CHO cells with NOP and Gαqi5; type: cell-based
# T9 construct: expressed in transfected cells; host or cells: CHO
# T9 sequence (P41146 whole entry): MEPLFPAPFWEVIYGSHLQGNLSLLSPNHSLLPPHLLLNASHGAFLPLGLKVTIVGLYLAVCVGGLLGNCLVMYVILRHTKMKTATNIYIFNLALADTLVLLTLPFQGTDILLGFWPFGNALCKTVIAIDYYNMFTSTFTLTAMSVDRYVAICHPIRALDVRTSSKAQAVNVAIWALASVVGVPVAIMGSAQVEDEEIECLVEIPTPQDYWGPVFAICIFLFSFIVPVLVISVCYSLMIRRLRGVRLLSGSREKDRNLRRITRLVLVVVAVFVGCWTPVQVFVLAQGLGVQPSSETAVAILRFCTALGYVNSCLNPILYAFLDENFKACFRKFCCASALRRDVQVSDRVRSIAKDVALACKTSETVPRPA
# T4 sequence (P41146 whole entry): as above
# T6 sequence (P41143 whole entry): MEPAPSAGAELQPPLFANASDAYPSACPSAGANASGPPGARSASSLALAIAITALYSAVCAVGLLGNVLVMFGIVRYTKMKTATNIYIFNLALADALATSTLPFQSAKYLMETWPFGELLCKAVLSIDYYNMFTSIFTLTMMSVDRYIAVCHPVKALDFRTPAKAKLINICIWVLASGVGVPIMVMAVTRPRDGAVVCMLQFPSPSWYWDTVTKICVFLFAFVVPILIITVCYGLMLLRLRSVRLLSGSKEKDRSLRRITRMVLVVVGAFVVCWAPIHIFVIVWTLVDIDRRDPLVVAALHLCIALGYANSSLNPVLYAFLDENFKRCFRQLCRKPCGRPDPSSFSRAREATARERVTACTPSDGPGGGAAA
# T3 sequence (P41145 whole entry): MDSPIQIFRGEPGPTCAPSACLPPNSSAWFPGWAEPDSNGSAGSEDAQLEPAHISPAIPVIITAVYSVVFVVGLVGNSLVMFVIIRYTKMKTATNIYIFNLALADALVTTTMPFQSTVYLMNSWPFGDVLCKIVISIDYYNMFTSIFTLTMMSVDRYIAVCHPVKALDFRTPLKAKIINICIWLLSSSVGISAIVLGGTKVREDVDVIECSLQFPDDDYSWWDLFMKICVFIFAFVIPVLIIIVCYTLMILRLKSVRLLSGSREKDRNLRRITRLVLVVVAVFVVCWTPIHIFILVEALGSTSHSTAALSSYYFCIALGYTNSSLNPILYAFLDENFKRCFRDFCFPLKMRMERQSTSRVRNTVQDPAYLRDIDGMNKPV
# T1 sequence (P35372 whole entry): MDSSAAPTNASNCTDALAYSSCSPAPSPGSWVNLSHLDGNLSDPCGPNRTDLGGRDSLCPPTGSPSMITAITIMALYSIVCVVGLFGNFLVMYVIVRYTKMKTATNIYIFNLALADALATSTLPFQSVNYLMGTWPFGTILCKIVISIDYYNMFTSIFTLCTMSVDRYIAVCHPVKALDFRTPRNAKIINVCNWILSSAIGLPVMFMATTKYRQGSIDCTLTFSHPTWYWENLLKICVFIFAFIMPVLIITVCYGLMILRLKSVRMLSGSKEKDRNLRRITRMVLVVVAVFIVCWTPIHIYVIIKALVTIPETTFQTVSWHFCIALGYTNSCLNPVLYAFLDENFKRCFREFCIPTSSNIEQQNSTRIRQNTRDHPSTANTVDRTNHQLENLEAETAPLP
# T7 sequence (P35372 whole entry): as above
# Sequence of human NOP receptor (NOP-RLuc/Gβ1-RGFP) (P41146 whole entry, looked up): as the sequence (P41146 whole entry) above
# T5 sequence (P41146+P27652 fused): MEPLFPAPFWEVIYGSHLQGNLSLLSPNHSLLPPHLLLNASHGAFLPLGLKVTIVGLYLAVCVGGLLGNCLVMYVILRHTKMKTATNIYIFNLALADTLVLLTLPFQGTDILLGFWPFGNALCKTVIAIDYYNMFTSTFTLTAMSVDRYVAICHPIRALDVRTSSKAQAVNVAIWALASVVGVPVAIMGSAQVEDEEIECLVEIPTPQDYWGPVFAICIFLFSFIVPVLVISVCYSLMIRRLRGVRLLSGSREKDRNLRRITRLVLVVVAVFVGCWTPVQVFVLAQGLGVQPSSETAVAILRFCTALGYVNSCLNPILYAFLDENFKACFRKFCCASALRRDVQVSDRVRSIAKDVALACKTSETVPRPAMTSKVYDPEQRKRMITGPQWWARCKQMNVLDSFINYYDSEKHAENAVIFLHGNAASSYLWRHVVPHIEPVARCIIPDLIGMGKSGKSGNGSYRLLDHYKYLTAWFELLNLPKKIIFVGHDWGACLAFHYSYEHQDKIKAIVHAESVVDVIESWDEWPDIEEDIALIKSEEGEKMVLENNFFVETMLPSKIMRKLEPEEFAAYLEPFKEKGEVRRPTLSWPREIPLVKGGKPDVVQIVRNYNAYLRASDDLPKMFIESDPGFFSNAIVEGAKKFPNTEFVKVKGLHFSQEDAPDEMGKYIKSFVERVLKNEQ
# T5 sequence (P32121 whole entry partner): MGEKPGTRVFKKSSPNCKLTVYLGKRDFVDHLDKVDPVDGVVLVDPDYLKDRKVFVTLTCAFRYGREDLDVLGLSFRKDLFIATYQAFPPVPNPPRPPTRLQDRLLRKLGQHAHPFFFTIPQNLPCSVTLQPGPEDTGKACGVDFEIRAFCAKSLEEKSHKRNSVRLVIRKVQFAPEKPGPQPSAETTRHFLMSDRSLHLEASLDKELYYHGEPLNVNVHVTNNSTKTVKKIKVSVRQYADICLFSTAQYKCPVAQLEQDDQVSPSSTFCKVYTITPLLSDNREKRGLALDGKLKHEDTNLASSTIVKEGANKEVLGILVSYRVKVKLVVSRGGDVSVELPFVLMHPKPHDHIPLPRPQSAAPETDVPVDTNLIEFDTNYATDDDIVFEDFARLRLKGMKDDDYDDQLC
# T2 sequence (P35372 whole entry, looked up): as the sequence (P35372 whole entry) above
# T8 sequence (P35372+P27652 fused): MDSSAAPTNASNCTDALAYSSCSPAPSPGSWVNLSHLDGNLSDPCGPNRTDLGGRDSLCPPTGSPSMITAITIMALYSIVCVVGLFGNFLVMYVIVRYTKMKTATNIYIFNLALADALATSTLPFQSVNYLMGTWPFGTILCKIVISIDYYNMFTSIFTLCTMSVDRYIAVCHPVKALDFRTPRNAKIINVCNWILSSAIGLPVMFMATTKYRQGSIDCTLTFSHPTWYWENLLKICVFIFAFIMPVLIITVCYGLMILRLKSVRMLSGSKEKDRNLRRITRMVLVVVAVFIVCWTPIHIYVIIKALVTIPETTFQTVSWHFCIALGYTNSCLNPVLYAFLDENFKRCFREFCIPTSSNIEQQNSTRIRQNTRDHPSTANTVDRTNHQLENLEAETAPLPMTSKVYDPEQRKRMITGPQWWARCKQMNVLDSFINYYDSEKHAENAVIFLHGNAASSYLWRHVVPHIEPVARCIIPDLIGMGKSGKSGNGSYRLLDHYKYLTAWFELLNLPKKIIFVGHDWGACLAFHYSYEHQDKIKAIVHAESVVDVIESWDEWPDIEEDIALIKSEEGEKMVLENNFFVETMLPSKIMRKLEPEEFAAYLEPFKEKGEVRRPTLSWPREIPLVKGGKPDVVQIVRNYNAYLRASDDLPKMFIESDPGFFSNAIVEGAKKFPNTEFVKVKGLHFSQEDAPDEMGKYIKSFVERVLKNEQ
# T8 sequence (P32121 whole entry partner): as the sequence (P32121 whole entry partner) above
structure (smiles),measurement,setting,value
CC(C)C[C@H](NC(=O)[C@H](CCCCN)NC(=O)[C@H](CCCNC(=N)N)NC(=O)[C@H](C)NC(=O)[C@H](CO)NC(=O)[C@H](CCCCN)NC(=O)[C@H](CCCNC(=N)N)NC(=O)[C@H](C)NC(=O)CNC(=O)[C@@H](NC(=O)[C@H](Cc1ccccc1)NC(=O)CNC(=O)CNC(=O)[C@@H](N)Cc1ccccc1)[C@@H](C)O)C(=O)N[C@@H](C)C(=O)N[C@@H](CC(N)=O)C(=O)N[C@@H](CCC(N)=O)C(=O)N[C@@H](CSC1CC(=O)N(CCCC(=O)NCCCC[C@H](NC(=O)[C@H](CO)NC(=O)[C@@H]2CCCN2C(=O)[C@H](Cc2ccc(O)cc2)NC(=O)CNC(=O)[C@H](Cc2ccccc2)NC(=O)[C@@H](C)NC(=O)[C@@H](N)Cc2ccc(O)cc2)C(N)=O)C1=O)C(N)=O (stereo partly drawn) [DeNo],animal performance in the rotarod test,rats,impaired animal performance in the rotarod test
same,Ki,Mu receptor (CHOhMu) [1],0.282 nM
same,EC50,[2],9.77 nM
same,Ki,[3],45.7 nM
same,EC50,[4],0.955 nM
same,EC50,Mu receptor (CHOhMu) [5],17 nM
same,Ki,NOP receptor (CHOhNOP) [6]; SEM,0.0603 nM
same,NOP selectivity over Mu in binding,NOP receptor (CHOhNOP) [6]; from pKi values,~ 5 fold
same,EC50,NOP receptor (CHOhNOP) [7],0.316 nM
same,EC50,[8],1200 nM
same,EC50,[9],6.46 nM
same,Ki,[10],7.59 nM
same,EC50,human Mu receptor,67.6 nM
same,Emax,"human Mu receptor; calcium mobilisation, % over basal fluorescence, CHO cells with human Mu and Gαqi5, at least 3 experiments in duplicate, SEM",209 ± 15%
same,EC50,[11],437 nM
same,EC50,[12],166 nM
same,EC50,human NOP receptor,0.204 nM
same,Emax,"human NOP receptor; calcium mobilisation, % over basal fluorescence, CHO cells with human NOP and Gαqi5, at least 3 experiments in duplicate, SEM",244 ± 6%
